“Also recorded” adds a separate entry of the source.
Tested on: patients with advanced and/or treatment-refractory solid tumors
Assay: Safety and tolerability: adverse events
Format: in vivo, human
[1] = TID-fasted (n = 32), All grades

O=C(Cc1cccc(OC(F)(F)F)c1)Nc1ccc(CCCCc2nnc(NC(=O)Cc3ccccn3)s2)nn1 [telaglenastat, Telaglenastat]
Patients with dose reductions (17 of 120 patients): 14% | Patients with dose interruptions (50 of 120 patients, primarily due to AEs): 42% | Maximum tolerated dose (MTD) (100–800 mg TID-fasted, 600–1,000 mg BID-fed): not reached; also recorded: not established | Abdominal distension (treatment-related AE) (BID-fed (n = 88), All grades): 2 (2.3) n (%) | Activated partial thromboplastin time prolonged (treatment-related AE) (BID-fed (n = 88), All grades): 2 (2.3) n (%) | Alanine aminotransferase increased (treatment-related AE) (BID-fed (n = 88), All grades): 14 (15.9) n (%) | Ammonia increased (treatment-related AE) (BID-fed (n = 88), All grades): 2 (2.3) n (%) | Anemia (treatment-related AE) (BID-fed (n = 88), All grades): 5 (5.7) n (%) | Aspartate aminotransferase increased (treatment-related AE) (BID-fed (n = 88), All grades): 10 (11.4) n (%) | Blood alkaline phosphatase increased (treatment-related AE) (BID-fed (n = 88), All grades): 6 (6.8) n (%) | Blood bilirubin increased (treatment-related AE) (BID-fed (n = 88), All grades): 3 (3.4) n (%) | Blood creatinine increased (treatment-related AE) (BID-fed (n = 88), All grades): 4 (4.5) n (%) | Constipation (treatment-related AE) (BID-fed (n = 88), All grades): 3 (3.4) n (%) | Decreased appetite (treatment-related AE) (BID-fed (n = 88), All grades): 8 (9.1) n (%) | Diarrhea (treatment-related AE) (BID-fed (n = 88), All grades): 2 (2.3) n (%) | Dysgeusia (treatment-related AE) (BID-fed (n = 88), All grades): 2 (2.3) n (%) | Dyspepsia (treatment-related AE) (BID-fed (n = 88), All grades): 2 (2.3) n (%) | Fatigue (treatment-related AE) (BID-fed (n = 88), All grades): 21 (23.9) n (%) | Gastroesophageal reflux disease (treatment-related AE) (BID-fed (n = 88), All grades): 2 (2.3) n (%) | Hypomagnesemia (treatment-related AE) (BID-fed (n = 88), All grades): 4 (4.5) n (%) | Hyponatremia (treatment-related AE) (BID-fed (n = 88), All grades): 2 (2.3) n (%) | Nausea (treatment-related AE) (BID-fed (n = 88), All grades): 21 (23.9) n (%) | Neuropathy peripheral (treatment-related AE) (BID-fed (n = 88), All grades): 2 (2.3) n (%) | Patients with ≥1 treatment-emergent AE (BID-fed (n = 88), All grades): 84 (95.5) n (%) | Patients with ≥1 treatment-related AE (BID-fed (n = 88), All grades): 64 (72.7) n (%) | Photophobia (treatment-related AE) (BID-fed (n = 88), All grades): 12 (13.6) n (%) | Photopsia (treatment-related AE) (BID-fed (n = 88), All grades): 2 (2.3) n (%) | Thrombocytopenia (treatment-related AE) (BID-fed (n = 88), All grades): 4 (4.5) n (%) | Vision blurred (treatment-related AE) (BID-fed (n = 88), All grades): 3 (3.4) n (%) | Vomiting (treatment-related AE) (BID-fed (n = 88), All grades): 5 (5.7) n (%) | Weight decreased (treatment-related AE) (BID-fed (n = 88), All grades): 3 (3.4) n (%) | γ-Glutamyltransferase increased (treatment-related AE) (BID-fed (n = 88), All grades): 7 (8.0) n (%) | Abdominal distension (treatment-related AE) (BID-fed (n = 88), Grade 3): 0 n (%) | Activated partial thromboplastin time prolonged (treatment-related AE) (BID-fed (n = 88), Grade 3): 0 n (%) | Alanine aminotransferase increased (treatment-related AE) (BID-fed (n = 88), Grade 3): 2 (2.3) n (%) | Ammonia increased (treatment-related AE) (BID-fed (n = 88), Grade 3): 0 n (%) | Anemia (treatment-related AE) (BID-fed (n = 88), Grade 3): 1 (1.1) n (%) | Aspartate aminotransferase increased (treatment-related AE) (BID-fed (n = 88), Grade 3): 1 (1.1) n (%) | Blood alkaline phosphatase increased (treatment-related AE) (BID-fed (n = 88), Grade 3): 1 (1.1) n (%) | Blood bilirubin increased (treatment-related AE) (BID-fed (n = 88), Grade 3): 0 n (%) | Blood creatinine increased (treatment-related AE) (BID-fed (n = 88), Grade 3): 0 n (%) | Constipation (treatment-related AE) (BID-fed (n = 88), Grade 3): 0 n (%) | Decreased appetite (treatment-related AE) (BID-fed (n = 88), Grade 3): 0 n (%) | Diarrhea (treatment-related AE) (BID-fed (n = 88), Grade 3): 0 n (%) | Dysgeusia (treatment-related AE) (BID-fed (n = 88), Grade 3): 0 n (%) | Dyspepsia (treatment-related AE) (BID-fed (n = 88), Grade 3): 0 n (%) | Fatigue (treatment-related AE) (BID-fed (n = 88), Grade 3): 0 n (%) | Gastroesophageal reflux disease (treatment-related AE) (BID-fed (n = 88), Grade 3): 0 n (%) | Hypomagnesemia (treatment-related AE) (BID-fed (n = 88), Grade 3): 0 n (%) | Hyponatremia (treatment-related AE) (BID-fed (n = 88), Grade 3): 0 n (%) | Nausea (treatment-related AE) (BID-fed (n = 88), Grade 3): 0 n (%) | Neuropathy peripheral (treatment-related AE) (BID-fed (n = 88), Grade 3): 0 n (%) | Patients with ≥1 treatment-emergent AE (BID-fed (n = 88), Grade 3): 28 (31.8) n (%) | Patients with ≥1 treatment-related AE (BID-fed (n = 88), Grade 3): 3 (3.4) n (%) | Photophobia (treatment-related AE) (BID-fed (n = 88), Grade 3): 0 n (%) | Photopsia (treatment-related AE) (BID-fed (n = 88), Grade 3): 0 n (%) | Thrombocytopenia (treatment-related AE) (BID-fed (n = 88), Grade 3): 0 n (%) | Vision blurred (treatment-related AE) (BID-fed (n = 88), Grade 3): 0 n (%) | Vomiting (treatment-related AE) (BID-fed (n = 88), Grade 3): 0 n (%) | Weight decreased (treatment-related AE) (BID-fed (n = 88), Grade 3): 0 n (%) | γ-Glutamyltransferase increased (treatment-related AE) (BID-fed (n = 88), Grade 3): 2 (2.3) n (%) | Abdominal distension (treatment-related AE) (BID-fed (n = 88), Grade 4): 0 n (%) | Activated partial thromboplastin time prolonged (treatment-related AE) (BID-fed (n = 88), Grade 4): 0 n (%) | Alanine aminotransferase increased (treatment-related AE) (BID-fed (n = 88), Grade 4): 0 n (%) | Ammonia increased (treatment-related AE) (BID-fed (n = 88), Grade 4): 0 n (%) | Anemia (treatment-related AE) (BID-fed (n = 88), Grade 4): 0 n (%) | Aspartate aminotransferase increased (treatment-related AE) (BID-fed (n = 88), Grade 4): 0 n (%) | Blood alkaline phosphatase increased (treatment-related AE) (BID-fed (n = 88), Grade 4): 0 n (%) | Blood bilirubin increased (treatment-related AE) (BID-fed (n = 88), Grade 4): 0 n (%) | Blood creatinine increased (treatment-related AE) (BID-fed (n = 88), Grade 4): 0 n (%) | Constipation (treatment-related AE) (BID-fed (n = 88), Grade 4): 0 n (%) | Decreased appetite (treatment-related AE) (BID-fed (n = 88), Grade 4): 0 n (%) | Diarrhea (treatment-related AE) (BID-fed (n = 88), Grade 4): 0 n (%) | Dysgeusia (treatment-related AE) (BID-fed (n = 88), Grade 4): 0 n (%) | Dyspepsia (treatment-related AE) (BID-fed (n = 88), Grade 4): 0 n (%) | Fatigue (treatment-related AE) (BID-fed (n = 88), Grade 4): 0 n (%) | Gastroesophageal reflux disease (treatment-related AE) (BID-fed (n = 88), Grade 4): 0 n (%) | Hypomagnesemia (treatment-related AE) (BID-fed (n = 88), Grade 4): 0 n (%) | Hyponatremia (treatment-related AE) (BID-fed (n = 88), Grade 4): 0 n (%) | Nausea (treatment-related AE) (BID-fed (n = 88), Grade 4): 0 n (%) | Neuropathy peripheral (treatment-related AE) (BID-fed (n = 88), Grade 4): 0 n (%) | Patients with ≥1 treatment-emergent AE (BID-fed (n = 88), Grade 4): 5 (5.7) n (%) | Patients with ≥1 treatment-related AE (BID-fed (n = 88), Grade 4): 0 n (%) | Photophobia (treatment-related AE) (BID-fed (n = 88), Grade 4): 0 n (%) | Photopsia (treatment-related AE) (BID-fed (n = 88), Grade 4): 0 n (%) | Thrombocytopenia (treatment-related AE) (BID-fed (n = 88), Grade 4): 0 n (%) | Vision blurred (treatment-related AE) (BID-fed (n = 88), Grade 4): 0 n (%) | Vomiting (treatment-related AE) (BID-fed (n = 88), Grade 4): 0 n (%) | Weight decreased (treatment-related AE) (BID-fed (n = 88), Grade 4): 0 n (%) | γ-Glutamyltransferase increased (treatment-related AE) (BID-fed (n = 88), Grade 4): 0 n (%) | Grade 3/4 ALT increase (BID-fed schedule): 2% | Grade 3/4 AST increase (BID-fed schedule): 1% | Incidence of treatment-related grade 3/4 AEs (BID-fed, 3/88): 3% | Abdominal distension (treatment-related AE) [1]: 0 n (%) | Activated partial thromboplastin time prolonged (treatment-related AE) [1]: 0 n (%)
